Results on eight compounds are retold here after paper PMC9844952 (Molecular Imaging and Biology, 2023).

One data set has as its target PSMA (Homo sapiens, UniProt Q04609). Kind of data set: automated lesion detection on 68Ga PSMA PET. It is filed as in vivo. As to conditions: 17 PSMA-positive lesions.
Data set [1] addresses norepinephrine transporter (NET) (Homo sapiens, UniProt P23975). Description: competitive 3H-NE uptake assay in SK-N-SH cells. In kind it is cell-based. As to conditions: read-out: IC50 of 3H-NE uptake; 60 min at 37°C, with pyrogallol and pargyline.
The next data set has as its target human mGlu2 receptors (Homo sapiens, UniProt Q14416). Kind of data set: radioligand binding in transfected CHO-K1 cells. As to conditions: glutamate 10 μM.
The test system of a further data set is mGluR2. Kind of data set: [11C]mG2P001 PET/CT in monkeys. In kind it is in vivo, Cynomolgus fascicularis.
Data set [2] deals with NCI-H460 Fluc tumours. Description: PET of NCI-H460 Fluc tumours on chick CAM. It is filed as in vivo, chicken. As to conditions: for tumour uptake in CAM tumours: 60 min p.i.
Data set [3] deals with NCI-H460 Fluc tumours. In kind it is in vivo, mice. As to conditions: 60 min p.i.
Another data set has as its system S. aureus. Kind of data set: in vitro binding to S. aureus.
The conditions of data set [4]: cited from earlier work.
The nature of data set [5]: doxorubicin-induced chronic cardiotoxicity model. In kind it is in vivo, C57BL/6J mice. The conditions noted are these: 8x3 mg/kg ip over 2 weeks.
The test system of a further data set is PDGFR-β. In kind it is in vivo, mouse. The conditions noted are these: imatinib for 3 weeks.
The nature of data set [6]: LogP of [99mTc]-DTPA-Collagen.
The next data set deals with Candida albicans 14053. Kind of data set: in vitro tracer uptake, yeast control.
The nature of data set [7]: in vitro stability of [99mTc]-DTPA-Collagen. As to conditions: 50h post-incubation, Radio-TLC.
A further data set deals with Escherichia coli 25922. Kind of data set: in vitro tracer uptake, Gram-negative control.
The subject of another data set is Gram-positive bacteria. Description: in vitro tracer uptake, Gram-positive bacteria.
A short description of data set [8]: blood half-life and biodistribution of [99mTc]-DTPA-Collagen.

Chain of human mGlu2 receptors (Q14416 19-872): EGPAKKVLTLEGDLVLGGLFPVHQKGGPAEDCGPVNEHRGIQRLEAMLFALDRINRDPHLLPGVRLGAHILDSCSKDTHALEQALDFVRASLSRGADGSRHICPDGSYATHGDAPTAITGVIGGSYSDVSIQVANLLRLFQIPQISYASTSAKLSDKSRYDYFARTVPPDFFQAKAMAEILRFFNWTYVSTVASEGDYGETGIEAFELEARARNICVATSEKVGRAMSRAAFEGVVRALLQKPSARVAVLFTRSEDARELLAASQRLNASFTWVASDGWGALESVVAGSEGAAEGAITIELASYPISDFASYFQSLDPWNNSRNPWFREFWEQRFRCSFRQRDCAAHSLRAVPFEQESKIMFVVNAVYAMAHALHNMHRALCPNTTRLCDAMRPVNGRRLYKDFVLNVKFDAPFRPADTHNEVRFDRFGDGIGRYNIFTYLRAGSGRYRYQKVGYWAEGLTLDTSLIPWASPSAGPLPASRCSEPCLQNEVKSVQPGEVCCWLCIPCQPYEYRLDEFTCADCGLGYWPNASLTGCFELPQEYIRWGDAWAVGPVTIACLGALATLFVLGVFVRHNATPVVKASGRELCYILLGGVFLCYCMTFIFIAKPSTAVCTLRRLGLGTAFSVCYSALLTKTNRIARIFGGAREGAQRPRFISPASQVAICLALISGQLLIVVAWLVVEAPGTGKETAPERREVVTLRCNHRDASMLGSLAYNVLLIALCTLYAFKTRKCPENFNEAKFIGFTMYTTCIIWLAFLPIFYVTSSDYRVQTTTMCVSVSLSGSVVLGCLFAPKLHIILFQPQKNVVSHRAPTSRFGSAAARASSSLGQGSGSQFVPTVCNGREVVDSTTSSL
Chain of PSMA (Q04609 whole entry): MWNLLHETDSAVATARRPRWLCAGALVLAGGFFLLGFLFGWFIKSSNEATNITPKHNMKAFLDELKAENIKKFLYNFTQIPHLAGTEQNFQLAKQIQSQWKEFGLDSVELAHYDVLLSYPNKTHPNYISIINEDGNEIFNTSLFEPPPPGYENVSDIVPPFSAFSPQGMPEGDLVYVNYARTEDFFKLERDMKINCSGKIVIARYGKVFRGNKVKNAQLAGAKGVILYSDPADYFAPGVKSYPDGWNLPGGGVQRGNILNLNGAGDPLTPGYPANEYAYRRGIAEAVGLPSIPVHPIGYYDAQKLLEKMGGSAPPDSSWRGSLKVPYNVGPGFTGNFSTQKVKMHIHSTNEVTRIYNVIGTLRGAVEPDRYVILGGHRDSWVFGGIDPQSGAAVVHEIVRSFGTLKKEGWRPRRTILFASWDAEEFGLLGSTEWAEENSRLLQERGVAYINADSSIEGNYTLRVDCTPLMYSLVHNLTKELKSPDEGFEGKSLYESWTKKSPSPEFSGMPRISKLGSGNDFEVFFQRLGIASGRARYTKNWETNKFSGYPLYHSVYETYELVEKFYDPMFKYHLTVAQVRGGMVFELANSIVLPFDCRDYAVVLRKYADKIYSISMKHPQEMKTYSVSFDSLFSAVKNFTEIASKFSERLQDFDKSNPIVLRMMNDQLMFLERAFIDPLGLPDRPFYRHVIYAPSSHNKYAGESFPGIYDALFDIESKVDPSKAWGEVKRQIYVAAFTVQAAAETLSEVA
Chain of norepinephrine transporter (NET) (P23975 whole entry): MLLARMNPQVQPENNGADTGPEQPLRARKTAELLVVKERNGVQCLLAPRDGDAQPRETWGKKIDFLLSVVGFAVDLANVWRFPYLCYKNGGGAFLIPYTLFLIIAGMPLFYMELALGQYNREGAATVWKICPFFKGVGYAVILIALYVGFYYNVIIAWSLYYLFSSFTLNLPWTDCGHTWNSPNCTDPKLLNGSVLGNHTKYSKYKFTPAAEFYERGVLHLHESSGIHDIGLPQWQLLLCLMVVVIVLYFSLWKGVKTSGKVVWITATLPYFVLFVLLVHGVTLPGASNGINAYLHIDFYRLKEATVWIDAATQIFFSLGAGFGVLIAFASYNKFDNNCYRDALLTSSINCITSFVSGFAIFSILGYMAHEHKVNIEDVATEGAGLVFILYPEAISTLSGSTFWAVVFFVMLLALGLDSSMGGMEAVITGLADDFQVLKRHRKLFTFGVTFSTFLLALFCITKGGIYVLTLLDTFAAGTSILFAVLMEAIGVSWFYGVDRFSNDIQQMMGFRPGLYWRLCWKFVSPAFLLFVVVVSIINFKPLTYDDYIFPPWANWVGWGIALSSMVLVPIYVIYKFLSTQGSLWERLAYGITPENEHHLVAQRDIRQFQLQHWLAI

Regarding `O=C([O-])CN(CCN(CC(=O)[O-])Cc1cc(CCC(=O)NCCCCCC(=O)NCCCC[C@H](NC(=O)N[C@@H](CCC(=O)O)C(=O)O)C(=O)O)ccc1[O-])Cc1cc(CCC(=O)O)ccc1[O-].[68Ga+3].[OH3+]` [68Ga PSMA], the “diagnostic sensitivity of automated lesion detection” value at PSMA came to 100%.
As for `N=C(N)NCc1cccc(I)c1` [MIBG, meta-iodobenzylguanidine], the IC50 in data set [1] amounted to 1750 ± 470 nM.
As for `Cn1c(CN2CCC(c3ccc(C(F)(F)F)cc3O[11CH3])CC2)nc2ncccc21` [[11C]mG2P001, 2-((4-(2-[^11C]methoxy-4-(trifluoromethyl)phenyl)piperidin-1-yl)methyl)-1-methyl-1H-imidazo[4,5-b]pyridine], the “maximum enhancement of specific binding vs control” value on human mGlu2 receptors was 2 fold. The SUVmax in brain with mGluR2 (at 15 min) is recorded as above 3. In the data set with mGluR2 (representative study, pretreatment with 0.6 mg/kg mG2P001 iv), the “enhancement of accumulation (Logan VT)” value is on record as 33%.
Take `O=C[C@H]([18F])[C@@H](O)[C@H](O)[C@H](O)CO` [[18F]FDG, 18-fluorodeoxyglucose]: the “tumour uptake in CAM tumours” value in the data set on NCI-H460 Fluc tumours [2] is on record as 10.0 ± 2.1 %ID/g. Besides, the tumour-to-albumin ratio in the data set with NCI-H460 Fluc tumours [2] (i.v. ~3 MBq) was found to be 14.7. In addition, the “tumour uptake in mice” value in the data set on NCI-H460 Fluc tumours [3] is 6.0 ± 1.4 %ID/g. The “binding to S. aureus” value in the data set on S. aureus came out at 21±1%.
For the compound `N[C@@H](C[C@H](CCC[18F])C(=O)O)C(=O)O` [[18F]FSPG], the “tumour uptake in CAM tumours” value with NCI-H460 Fluc tumours [2] was found to be 14.0 ± 5.5 %ID/g. In addition, the “stable in human plasma” value in [4] is listed as “up to 4 hours”.
`COc1cccc2c1C(=O)c1c(O)c3c(c(O)c1C2=O)C[C@@](O)(C(=O)CO)C[C@@H]3O[C@H]1C[C@H](N)[C@H](O)[C@H](C)O1` [doxorubicin] had an overall mortality rate in [5] below 20%.
Take `Cc1ccc(NC(=O)c2ccc(CN3CCN(C)CC3)cc2)cc1Nc1nccc(-c2cccnc2)n1` [imatinib]: the “accumulation of Cy7-BiPPB in mutant kidneys under treatment” value in the data set with PDGFR-β is on record as “decreased”.
Compound “[99mTc]-DTPA-Collagen: Rat Tail Collagen I conjugated to DTPA and labeled with 99mTc” came in with a LogP in data set [6] of -3.69±0.58. For the same compound, in the data set on S. aureus, the “binding to S. aureus” value was 66±3%. Also, the results for the in vitro uptake in the data set with Candida albicans 14053, in the data set with Escherichia coli 25922 and in the data set on Gram-positive bacteria were 12±3%, 9±2% and 63±7%, respectively. In addition, the stability result in data set [7] is listed as “higher than 90%”. In data set [8] (blood extraction), this compound showed a blood circulation half-life of 19 ± 2 min. Also, the “liver uptake, ex vivo” value in data set [8] (rat, in vivo) is reported as 6.1±2.8 %ID/g. Further, the “spleen uptake, ex vivo” value in [8] (rat, in vivo) worked out at 2.1±0.2 %ID/g.

As usually defined, the IC50 is the midpoint of a concentration-inhibition curve. In general, LogP refers to the decadic logarithm of the partition coefficient of the neutral form, usually between octanol and water. Read a low LogP as a more hydrophilic compound.
